# Reference: US20260209208A1, “PHENYL-PYRAZOLE CARBOXAMIDE COMPOUNDS” (Acrivon Therapeutics, Inc., priority 2022, published 2026)
# Tests used:
# [1] = target: T1, recombinant human PMYT-1 (Myt1 kinase) (Homo sapiens, UniProt Q99640); assay: LanthaScreen Europium (Eu) Kinase Binding Assay for Myt1 kinase; details: TR-FRET tracer 178 displacement, GST-tagged full length PMYT-1, 60 min, room temperature; mean IC50; read-out: LANTHA Kinase Binding for PMyt1
# T1 construct: full length PMYT-1 was expressed by baculovirus in insect cells using a N-terminal GST tag; purchased Invitrogen A30984; host or cells: insect cells (baculovirus)
# T1 sequence (Q99640 1-499): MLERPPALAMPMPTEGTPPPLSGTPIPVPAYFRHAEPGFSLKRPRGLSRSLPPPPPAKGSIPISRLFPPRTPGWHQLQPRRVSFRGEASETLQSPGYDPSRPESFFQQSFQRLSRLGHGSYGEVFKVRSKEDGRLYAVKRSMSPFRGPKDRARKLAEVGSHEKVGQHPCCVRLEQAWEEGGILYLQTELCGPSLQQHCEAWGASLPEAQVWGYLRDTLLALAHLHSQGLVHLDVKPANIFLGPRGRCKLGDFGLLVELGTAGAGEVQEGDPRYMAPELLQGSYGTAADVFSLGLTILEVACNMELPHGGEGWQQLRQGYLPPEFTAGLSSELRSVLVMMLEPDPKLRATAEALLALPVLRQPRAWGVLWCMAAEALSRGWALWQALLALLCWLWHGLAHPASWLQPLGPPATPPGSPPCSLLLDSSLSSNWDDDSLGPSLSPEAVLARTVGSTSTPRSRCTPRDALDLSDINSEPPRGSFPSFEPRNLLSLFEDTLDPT
# Text: We used a LanthaScreen Europium (Eu) Kinase Binding Assay to determine the binding of provided compounds to Myt1 kinase. The assay utilizes an Alexa Fluor 647-labeled ATP competitive kinase tracer that binds to the ATP binding site of a GST-tagged Myt1 kinase, while a europium (Eu) labeled antibody binds to the GST tag. The proximity of fluorescently labeled kinase tracer and europium (Eu) donor fluorophore antibody leads to fluorescence resonance energy transfer (FRET) to the fluorescence label (acceptor) upon excitation of the Eu (donor). Displacement of tracer from the ATP-binding site by a test compound disturbs the proximity between both labels thus lowering the FRET.
# This time resolved-FRET binding assay was performed in white 384-well low volume plates (Greiner, cat #784075), at room temperature in kinase buffer A (KBA; Invitrogen cat # PV3189), consisting of 50 mM HEPES-NaOH (pH 7.5), 0.01% Brij-35, 10 mM MgCl2, and 1 mM EGTA. 5 μl of compound (diluted in reaction buffer, to 1% DMSO) were added to various wells in the plate, followed by 5 μl each of recombinant human PMYT-1 (full length PMYT-1 was expressed by baculovirus in insect cells using a N-terminal GST tag (MW: 80.8 kDa) (Invitrogen cat #A30984) and LanthaScreen Eu-anti-GST antibody (Invitrogen, cat #PV5594). After this, 5 μl of kinase tracer 178 (Invitrogen, cat #PV5593) was added to the plate and the plate was incubated for 60 minutes at room temperature. The final assay conditions in each well were: 3 nM tracer 178, 2.5 nM PMYT-1 and 1 nM Eu-labeled antibody in total assay volume of 15 μl. An Envision 2104 (Perkin-Elmer) Plate Reader with the following time-resolve fluorescence setting was used for performing LanthaScreen kinase binding assay. • Excitation 320 nm (30 nm bandpass) • Kinase Tracer Emission 665 nm (10 nm bandpass) • LanthaScreen Eu-anti-Tag Antibody Emission 615 nm (10 nm bandpass) • Dichroic Mirror Instrument dependent • Delay Time 100 μs • Integration Time 200 μs
# To calculate the emission ratio, the acceptor/tracer emission ([…]) was divided by the antibody/donor emission ([…]) and the average of duplicate measurement was used for calculations. Data plotting, analysis of binding, and curve fitting was done using Excel add-in XLfit version 5.5.0.5 (IDBS, Guildford, United Kingdom).
# [2] = target: T2, Myt1 Kinase (Homo sapiens, UniProt Q99640); assay: AlphaLISA SureFire Ultra Human Phospho-CDK1 (Thr14) target engagement assay in DAOY cells; type: cell-based; details: 4 h incubation, Cdk1 phosphorylated on threonine 14, read-out: TE Myt1 Kinase (AlphaLISA)
# T2 construct: endogenous in cells; host or cells: DAOY medulloblastoma cells (ATCC)
# T2 sequence (Q99640 1-499): T1 sequence (Q99640 1-499)
# Protocol: The following cellular assay was used to determine the extent to which the compounds disclosed herein inhibit phosphorylation of CDK1 at Thr 14.
# DAOY medulloblastoma cell line (ATCC) was cultured in Minimum Essential Medium Eagle supplemented with 10% fetal calf serum (Sigma), 1% Penicillin-Streptomycin and 10 mM HEPES buffer (HyClone). Cell cultures were kept in a humidified incubator at 37° C. and 5% CO2. Cells were routinely tested for Mycoplasma contamination.
# For target engagement assessment, quantification of Cdk1 phosphorylated on threonine 14 was detected using the AlphaLISA® SureFire® Ultra™ Human Phospho-CDK1 (Thr14) assay (Perkin Elmer). DAOY cells were seeded into tissue culture 96-well plates (VWR) to a density of 10,000 cells per well. Twenty-four hours post-seeding cells were incubated for 4 h with test compounds at concentrations ranging from 7 to 5000 nM. Cells were washed with PBS and lysed in 50 μl AlphaLISA® lysis buffer before freezing at −80° C. Ten μl of the lysate was transferred to 384 well plates and incubated with AlphaLISA® donor and acceptor beads according to the manufacturer's instructions. Dose response curves and EC50 values were calculated and visualized using GraphPad Prism version 9.
Structure (SMILES),IC50 [1] [nM],EC50 [2] [nM]
"Cc1ccc2[nH]nc(C)c2c1-n1nc(-c2ccco2)c(C(N)=O)c1N (atropisomer, axis not shown) [Compound 116, 5-amino-1-(3,5-dimethyl-1H-indazol-4-yl)-3-(furan-2-yl)-1H-pyrazole-4-carboxamide]",> 250,
"Cc1ccc2[nH]nc(C)c2c1-n1nc(-c2ccco2)c(C(N)=O)c1N (single isomer, unassigned) [Compound 103, 5-amino-1-(3,5-dimethyl-1H-indazol-4-yl)-3-(furan-2-yl)-1H-pyrazole-4-carboxamide]",10 to 100,
"Cc1ccc(O)c(C)c1-n1nc(-c2ccco2)c(C(N)=O)c1N (single isomer, unassigned) [Compound 105, 5-amino-3-(furan-2-yl)-1-(3-hydroxy-2,6-dimethylphenyl)-1H-pyrazole-4-carboxamide]",10 to 100,> 1000
"Cc1ccc(O)c(C)c1-n1nc(-c2cc3ccccc3o2)c(C(N)=O)c1N (single isomer, unassigned) [Compound 109, 5-amino-3-(benzofuran-2-yl)-1-(3-hydroxy-2,6-dimethylphenyl)-1H-pyrazole-4-carboxamide]",> 250,
"Cc1ccc(O)c(C)c1-n1nc(-c2cc(Br)co2)c(C(N)=O)c1N (single isomer, unassigned) [Compound 110, 5-amino-3-(4-bromofuran-2-yl)-1-(3-hydroxy-2,6-dimethylphenyl)-1H-pyrazole-4-carboxamide]",100 to 250,
"Cc1ccc(O)cc1-n1nc(-c2ccccc2)c(C(N)=O)c1N [Compound 1, 5-amino-1-(5-hydroxy-2-methylphenyl)-3-phenyl-1H-pyrazole-4-carboxamide]",100 to 250,500 to 1000
"Cc1ccc(O)cc1-n1nc(-c2ccc(F)cc2)c(C(N)=O)c1N [Compound 2, 5-amino-3-(4-fluorophenyl)-1-(5-hydroxy-2-methylphenyl)-1H-pyrazole-4-carboxamide]",100 to 250,
"COc1ccc(-c2nn(-c3cc(O)ccc3C)c(N)c2C(N)=O)cc1 [Compound 3, 5-amino-1-(5-hydroxy-2-methylphenyl)-3-(4-methoxyphenyl)-1H-pyrazole-4-carboxamide]",> 250,
"Cc1ccc(O)cc1-n1nc(-c2ccc(Cl)cc2)c(C(N)=O)c1N [Compound 4, 5-amino-3-(4-chlorophenyl)-1-(5-hydroxy-2-methylphenyl)-1H-pyrazole-4-carboxamide]",100 to 250,> 1000
"Cc1ccc2[nH]ncc2c1-n1nc(-c2ccccc2)c(C(N)=O)c1N [Compound 5, 5-amino-1-(5-methyl-1H-indazol-4-yl)-3-phenyl-1H-pyrazole-4-carboxamide]",10 to 100,> 1000
"Cc1ccc(O)cc1-n1nc(-c2cccc(Br)c2)c(C(N)=O)c1N [Compound 6, 5-amino-3-(3-bromophenyl)-1-(5-hydroxy-2-methylphenyl)-1H-pyrazole-4-carboxamide]",> 250,> 1000
"Cc1ccc(O)cc1-n1nc(-c2cccc(-c3ccncc3)c2)c(C(N)=O)c1N [Compound 7, 5-amino-1-(5-hydroxy-2-methylphenyl)-3-[3-(pyridin-4-yl)phenyl]-1H-pyrazole-4-carboxamide]",> 250,
"Cc1ccc(O)cc1-n1nc(-c2cccc(C3CCNCC3)c2)c(C(N)=O)c1N [Compound 8, 5-amino-1-(5-hydroxy-2-methylphenyl)-3-[3-(piperidin-4-yl)phenyl]-1H-pyrazole-4-carboxamide]",> 250,
COc1ccc(S(=O)(=O)O)cc1-c1nn(-c2c(C)ccc(O)c2C)c(N)c1C(N)=O [Compound 60],> 250,
Cc1ccc(O)c(C)c1-n1nc(-c2cccc(F)c2)c(C(N)=O)c1N [Compound 61],10 to 100,> 1000
Cc1ccc(O)c(C)c1-n1nc(-c2ccccc2Cl)c(C(N)=O)c1N [Compound 62],> 250,
Cc1cccc(-c2nn(-c3c(C)ccc(O)c3C)c(N)c2C(N)=O)c1 [Compound 63],10 to 100,
COc1ccccc1-c1nn(-c2c(C)ccc(O)c2C)c(N)c1C(N)=O [Compound 64],> 250,
Cc1ccc(O)c(C)c1-n1nc(-c2ccccc2F)c(C(N)=O)c1N [Compound 65],10 to 100,
Cc1ccccc1-c1nn(-c2c(C)ccc(O)c2C)c(N)c1C(N)=O [Compound 66],> 250,
"Cc1cc(Cl)c(O)c(C)c1-n1nc(-c2ccc(Br)o2)c(C(N)=O)c1N [Compound 74, 5-amino-3-(5-bromo-2-furyl)-1-(4-chloro-3-hydroxy-2,6-xylyl)-4-pyrazolecarboxamide]",10 to 100,> 1000
"Cc1ccc(O)c(C)c1-n1nc(-c2ccoc2)c(C(N)=O)c1N [Compound 76, 5-amino-3-(3-furyl)-1-(3-hydroxy-2,6-xylyl)-4-pyrazolecarboxamide]",10 to 100,> 1000
"Cc1ccc2[nH]ncc2c1-n1nc(-c2cc3ccccc3o2)c(C(N)=O)c1N [Compound 77, 5-amino-3-(1-benzofuran-2-yl)-1-(5-methyl-1H-indazol-4-yl)-4-pyrazolecarboxamide]",10 to 100,> 1000
"Cc1ccc(O)c(C)c1-n1nc(-c2coc(Br)c2)c(C(N)=O)c1N [Compound 78, 5-amino-3-(5-bromo-3-furyl)-1-(3-hydroxy-2,6-xylyl)-4-pyrazolecarboxamide]",10 to 100,250 to 500
"Cc1ccoc1-c1nn(-c2c(C)ccc(O)c2C)c(N)c1C(N)=O [Compound 83, 5-amino-1-(3-hydroxy-2,6-xylyl)-3-(3-methyl-2-furyl)-4-pyrazolecarboxamide]",10 to 100,> 1000
"Cc1ccc2[nH]ncc2c1-n1nc(-c2ccco2)c(C(N)=O)c1N [Compound 84, 5-amino-3-(2-furyl)-1-(5-methyl-1H-indazol-4-yl)-4-pyrazolecarboxamide]",10 to 100,> 1000
"Cc1ccc2[nH]ncc2c1-n1nc(-c2ccc(Br)o2)c(C(N)=O)c1N [Compound 85, 5-amino-3-(5-bromo-2-furyl)-1-(5-methyl-1H-indazol-4-yl)-4-pyrazolecarboxamide]",10 to 100,> 1000
"Cc1cc(-c2nn(-c3c(C)ccc(O)c3C)c(N)c2C(N)=O)oc1C [Compound 89, 5-amino-3-(4,5-dimethyl-2-furyl)-1-(3-hydroxy-2,6-xylyl)-4-pyrazolecarboxamide]",≤ 10,250 to 500
"NC(=O)c1c(-c2ccco2)nn(-c2c(Cl)ccc(O)c2Cl)c1N [Compound 91, 5-amino-1-(2,6-dichloro-3-hydroxyphenyl)-3-(2-furyl)-4-pyrazolecarboxamide]",10 to 100,> 1000
Cc1ccc(O)c(C)c1-n1nc(-c2cnn(C)c2)c(C(N)=O)c1N [Compound 121],10 to 100,
